Data on four molecules can be found in publication PMC9270327 (Communications Biology, 2022).

The target of one data set is TMPRSS2 (Homo sapiens, UniProt O15393). In words: Michaelis-Menten constant of the fluorogenic reference substrate. Particulars: read-out: Michaelis-Menten constant KM for TMPRSS2.
In a further data set the target is T1, factor Xa (Homo sapiens, UniProt P00742).
T1 construct: purchased Bio-Techne GmbH (Wiesbaden, Germany)
In words: Enzyme inhibition assay with purified factor Xa (Ki, dose-response). The data set is classed as biochemical. Particulars: for factor Xa activity, Mean (Fig. 2d): normalized, 0 nM = 100. The text has this: (§1) Recombinant human TMPRSS2 was purchased from Creative BioMart (New York, USA) or LSBio (Seattle, USA), factor Xa was obtained from Bio-Techne GmbH (Wiesbaden, Germany). Recombinant human thrombin and matriptase protein were purchased from R&D Systems (Minneapolis, MN, USA).

Data set [1] concerns the target T2, recombinant human thrombin (Homo sapiens, UniProt P00734).
T2 construct: purchased R&D Systems (Minneapolis, MN, USA)
In words: Enzyme inhibition assay with purified thrombin (Ki, dose-response). The data set is classed as biochemical. The conditions noted are these: for thrombin activity, Mean (Fig. 2c): normalized.
Source text: as §1

Data set [2] has as its target T3, recombinant human matriptase (Homo sapiens, UniProt Q9Y5Y6).
T3 construct: purchased R&D Systems (Minneapolis, MN, USA)
T3 sequence (Q9Y5Y6 1-855): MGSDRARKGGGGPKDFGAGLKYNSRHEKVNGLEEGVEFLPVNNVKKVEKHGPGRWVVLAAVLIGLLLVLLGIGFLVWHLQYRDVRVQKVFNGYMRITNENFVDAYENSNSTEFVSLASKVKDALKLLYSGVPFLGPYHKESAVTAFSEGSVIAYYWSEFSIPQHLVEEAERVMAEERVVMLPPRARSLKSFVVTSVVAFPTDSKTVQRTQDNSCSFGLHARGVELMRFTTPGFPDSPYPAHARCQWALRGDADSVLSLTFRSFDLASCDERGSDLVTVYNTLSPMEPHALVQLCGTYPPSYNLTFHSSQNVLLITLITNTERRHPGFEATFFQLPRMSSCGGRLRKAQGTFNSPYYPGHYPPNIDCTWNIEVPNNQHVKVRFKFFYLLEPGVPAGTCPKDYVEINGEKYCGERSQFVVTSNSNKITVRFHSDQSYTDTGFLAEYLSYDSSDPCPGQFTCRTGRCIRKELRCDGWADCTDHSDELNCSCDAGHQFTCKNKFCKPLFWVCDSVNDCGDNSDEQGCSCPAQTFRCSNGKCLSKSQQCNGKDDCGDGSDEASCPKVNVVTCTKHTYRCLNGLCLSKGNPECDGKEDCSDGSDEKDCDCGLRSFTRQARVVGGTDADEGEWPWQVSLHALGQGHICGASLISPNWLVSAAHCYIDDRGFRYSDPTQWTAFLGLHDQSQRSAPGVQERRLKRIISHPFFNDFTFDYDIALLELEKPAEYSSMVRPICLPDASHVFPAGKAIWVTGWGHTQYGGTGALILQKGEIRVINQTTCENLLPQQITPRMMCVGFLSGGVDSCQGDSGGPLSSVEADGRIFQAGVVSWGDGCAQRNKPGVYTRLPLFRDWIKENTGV
Briefly: Enzyme inhibition assay with purified matriptase (Ki, dose-response). The data set is classed as biochemical. The conditions noted are these: for matriptase activity, Mean (Fig. 2b): normalized, 0 nM = 100.

For data set [3] the following is noted: iv; cited from earlier work.
Setting [4] is: 30 min preincubation, substrate Bz-Ile-Glu-Gly-Arg-pNA.
Where [5] appears, read: 30 min preincubation, substrate D-Phe-Homopro-Arg-pNA.
[6] abbreviates: 30 min preincubation, substrate Boc-Gln-Ala-Arg-AMC.

Where a SMILES comes first, the peptide text is derived from it. The star is where a group is joined. AMC = Cc1cc(=O)oc2cc(N*)ccc12; Boc = CC(C)(C)OC(=O)* Bounds are passed on as bounds.

T1 sequence (P00742 235-488 limits assumed): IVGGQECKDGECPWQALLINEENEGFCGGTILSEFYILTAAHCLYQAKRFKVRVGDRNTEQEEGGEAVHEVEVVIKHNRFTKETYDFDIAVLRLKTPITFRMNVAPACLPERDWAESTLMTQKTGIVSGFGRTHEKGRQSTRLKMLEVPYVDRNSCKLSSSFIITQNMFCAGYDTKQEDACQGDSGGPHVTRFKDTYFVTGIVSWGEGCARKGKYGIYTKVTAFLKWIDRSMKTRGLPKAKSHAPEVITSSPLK
T1 sequence (P00742 41-179 partner limits assumed): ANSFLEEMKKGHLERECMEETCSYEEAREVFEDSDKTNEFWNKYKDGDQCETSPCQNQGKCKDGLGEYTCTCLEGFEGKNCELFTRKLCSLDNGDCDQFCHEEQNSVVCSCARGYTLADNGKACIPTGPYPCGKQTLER
Chain of TMPRSS2 (O15393 whole entry): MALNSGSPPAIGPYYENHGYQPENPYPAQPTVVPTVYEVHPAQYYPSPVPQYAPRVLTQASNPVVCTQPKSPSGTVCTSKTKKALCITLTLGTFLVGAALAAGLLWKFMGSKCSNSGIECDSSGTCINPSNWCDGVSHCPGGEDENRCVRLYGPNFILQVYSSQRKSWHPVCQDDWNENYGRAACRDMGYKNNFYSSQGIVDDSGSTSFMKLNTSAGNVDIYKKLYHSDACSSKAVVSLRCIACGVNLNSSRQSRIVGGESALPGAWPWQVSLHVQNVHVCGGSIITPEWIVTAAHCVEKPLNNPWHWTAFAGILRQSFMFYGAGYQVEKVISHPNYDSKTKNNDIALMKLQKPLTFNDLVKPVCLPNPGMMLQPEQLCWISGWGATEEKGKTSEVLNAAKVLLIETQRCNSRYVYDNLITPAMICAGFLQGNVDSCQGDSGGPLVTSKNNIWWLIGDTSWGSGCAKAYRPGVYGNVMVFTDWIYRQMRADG
Procedure for TMPRSS2: The measurements were performed on a Tecan infinite® M1000 and the fluorescence intensity was measured by exciting the AMC fluorophore at 380 nm wavelength and recording emission at 460 nm wavelength. […] Fluorescence intensities and absorption were measured every 2 min for 2 h or as endpoint after 2 h.
Supplementary Figure 2 Michaelis-Menten constant (KM) of the fluorogenic reference substrate
The data points were plotted using the Michaelis -Menten
equation in GraphPad Prism prism version 8.4.2 (San Diego, California). Shown are the means ± SD of
n=1 experiment performed in triplicates.

Broadly, the Km is the substrate concentration at which the rate is half of its maximum. Take `Cc1cc(=O)oc2cc(NC(=O)[C@H](CCCN=C(N)N)NC(=O)[C@H](C)NC(=O)[C@H](CCC(N)=O)NC(=O)OC(C)(C)C)ccc12` [Boc-Gln-Ala-Arg-AMC] (Boc-Gln-Ala-Arg-{AMC}): the Km on TMPRSS2 was found to be 77 µM.

Consider `CC(=O)N[C@H](CCCNC(=N)N)C(=O)N[C@@H](CC1CCC1)C(=O)N[C@H](CO)CCCNC(=N)N` [Cpd. 7 alcohol], for which the “Ki Factor Xa” value on factor Xa (setting [4]) was “n.i”. The “factor Xa activity, Mean (control = 100), S6c” value (shortened to “factor Xa activity, Mean … S6c”) turned out to be 93.6065 on factor Xa (inhibitor 0.2 nM); 101.454 on factor Xa (inhibitor 2 nM); 95.9299 at factor Xa (inhibitor 20 nM); 88.9574 at factor Xa (inhibitor 200 nM); 78.1999 on factor Xa (inhibitor 10000 nM); 120.06 at factor Xa (inhibitor 100000 nM). Besides, the “Ki Thrombin” value in data set [1] (setting [5]) is reported as “n.i”. The “thrombin activity, Mean (control = 100), S6b” value (from here on “thrombin activity, Mean … S6b”) in data set [1] (inhibitor 0.2 nM) is given as 90.7019; in data set [1] (inhibitor 2 nM), 92.977; in data set [1] (inhibitor 20 nM) it was 91.1965; in data set [1] (inhibitor 200 nM), 95.4993; in data set [1] (inhibitor 10000 nM), 93.8672; in data set [1] (inhibitor 100000 nM) it was 91.2954. In addition, the “Ki Matriptase” value in data set [2] (setting [6]) was “n.i”. Besides, the “matriptase activity, Mean (control = 100), S6a” value (“matriptase activity, Mean … S6a” below) in data set [2] (inhibitor 10 nM) is reported as 90.4903; in data set [2] (inhibitor 100 nM) it was 101.634; in data set [2] (inhibitor 1000 nM), 101.337; in data set [2] (inhibitor 50000 nM), 91.3819; in data set [2] (inhibitor 500000 nM), 44.4279.

Usually Ki stands for the equilibrium dissociation constant of an inhibitor or competing ligand from its target. For the molecule `CC(=O)NC(CCCNC(=N)N)C(=O)NC(CC1CCC1)C(=O)NC(CCCNC(=N)N)C(=O)c1nccs1` (stereo not shown) [Cpd. 7 ketothiazole], the inhibitory constant (Ki) was 98.7 nM on factor Xa (setting [4]) and 141 nM in data set [2] (setting [6]). In addition, the “factor Xa activity, Mean … S6c” value at factor Xa (inhibitor 0.02 nM) came to 95.3485; on factor Xa (inhibitor 0.04 nM) it was 90.4387; at factor Xa (inhibitor 0.2 nM) it was 87.8566; at factor Xa (inhibitor 2 nM), 87.8545; on factor Xa (inhibitor 20 nM), 82.4299; on factor Xa (inhibitor 200 nM), 52.1976. The “factor Xa activity, Mean … S6c” value at factor Xa (inhibitor 10000 nM) is listed as 2.584; on factor Xa (inhibitor 100000 nM) it was 3.101. Further, the “Ki Thrombin” value in data set [1] (setting [5]) is on record as “n.i”. The “thrombin activity, Mean … S6b” value in data set [1] (inhibitor 0.02 nM) is reported as 96.7111; in data set [1] (inhibitor 0.04 nM) it was 101.49; in data set [1] (inhibitor 0.2 nM), 101.233; in data set [1] (inhibitor 2 nM) it was 107.554; in data set [1] (inhibitor 20 nM), 101.388; in data set [1] (inhibitor 200 nM), 101.233. Further, the “thrombin activity, Mean … S6b” value in data set [1] (inhibitor 10000 nM) is on record as 98.2014; in data set [1] (inhibitor 100000 nM), 83.6589. In addition, the “matriptase activity, Mean … S6a” value in data set [2] (inhibitor 0.1 nM) is reported as 103.606; in data set [2] (inhibitor 0.2 nM) it was 101.185; in data set [2] (inhibitor 1 nM) it was 109.016; in data set [2] (inhibitor 10 nM) it was 101.829; in data set [2] (inhibitor 100 nM) it was 75.1932; in data set [2] (inhibitor 1000 nM) it was 21.355. The “matriptase activity, Mean … S6a” value in data set [2] (inhibitor 50000 nM) was 0.4637; in data set [2] (inhibitor 500000 nM), -0.1803.

In the case of `NC(N)=Nc1ccc(C(=O)Oc2ccc(CC(=O)O)cc2)cc1` [FOY-251, reference compound], the in vivo half-life in data set [3] was 1 to 1.67 h. The “factor Xa activity, Mean (Fig. 2d)” value is given as 91.2533 on factor Xa (0.02 nM); 91.3991 at factor Xa (0.04 nM); 72.8853 on factor Xa (0.2 nM); 86.5885 at factor Xa (2 nM); 82.2151 on factor Xa (20 nM); 72.5938 on factor Xa (200 nM). Besides, the “factor Xa activity, Mean (Fig. 2d)” value was 34.986 at factor Xa (10000 nM) and 16.3265 on factor Xa (100000 nM). Moreover, the figures for the Ki (on factor Xa (setting [4]); in data set [1] (setting [5]); in data set [2] (setting [6])) were 697 nM, more than 50000 nM and 173 nM, respectively. For the same molecule, the “thrombin activity, Mean (Fig. 2c)” value in data set [1] (0.01 nM) is listed as 101.844; in data set [1] (0.02 nM, 0 nM = 100), 101.898; in data set [1] (0.04 nM, 0 nM = 100) it was 101.898; in data set [1] (0.2 nM, 0 nM = 100), 101.356; in data set [1] (2 nM, 0 nM = 100), 99.0781; in data set [1] (20 nM, 0 nM = 100), 102.277. The “thrombin activity, Mean (Fig. 2c)” value is 93.0588 in data set [1] (10000 nM, 0 nM = 100) and 44.1974 in data set [1] (100000 nM, 0 nM = 100). Besides, the “matriptase activity, Mean (Fig. 2b)” value in data set [2] (0.05 nM) was 110.25; in data set [2] (0.5 nM) it was 111.62; in data set [2] (5 nM), 106.849; in data set [2] (50 nM), 97.213; in data set [2] (500 nM), 35.5692; in data set [2] (5000 nM) it was 1.606. Further, the “matriptase activity, Mean (Fig. 2b)” value was found to be 0.2362 in data set [2] (50000 nM) and 0.1417 in data set [2] (500000 nM).
